Values quoted from earlier work in patent publication US6395296B1, “Soluble double metal salt of group IA and IIA of hydroxycitric acid, process of preparing the same and its use in beverages and other food products without effecting their flavor and properties” (priority 1997, dated 2002).

Key:
[1] = system: ATP dependent citrate-lyase; settings: key enzyme in diverting carbohydrate to fatty acids and cholesterol synthesis; Sullivan et al., Sergio
[2] = system: conversion of excess carbohydrates to fat; settings: in animals; established by several scientists including at Hoffman-La Roche

- inhibition of ATP dependent citrate-lyase [1]: inhibit
Structure (SMILES): O=C(O)CC(O)(C(=O)O)C(O)C(=O)O (single isomer, unassigned; (-)) [HCA, (−) Hydroxycitric acid]
- conversion of excess carbohydrates to fat [2]: prevents the conversion of excess carbohydrates to fat
